Assay results from ChEMBL document CHEMBL4138182, “Aminomethylation of heliomycin: Preparation and anticancer characterization of the first series of semi-synthetic derivatives” (Eur J Med Chem, 2018).
Activity calls are given as the source filed them. The calls are words filed in the database; no cut-off is given here.

Columns and labels:
[1] = test system: K562; assay: Antiproliferative activity against human K562 cells after 72 hrs by MTT assay; assay type: functional, cell-based; conditions: K562, 72 h
[2] = test system: HeLa; assay: Antiproliferative activity against human HeLa cells after 72 hrs by MTT assay; assay type: functional, cell-based
[3] = test system: HCT-116; assay: Antiproliferative activity against p53 deficient human HCT116 cells after 72 hrs by MTT assay; assay type: functional, cell-based; conditions: HCT-116, 72 h
[4] = test system: L1210; assay: Antiproliferative activity against mouse L1210 cells after 72 hrs by MTT assay; assay type: functional, cell-based; conditions: L1210, 72 h
[5] = test system: CCRF-CEM; assay: Antiproliferative activity against human CEM cells after 72 hrs by MTT assay; assay type: functional, cell-based
[6] = Resistance index, ratio of IC50 for human K562/4 cells to IC50 for human K562 cells; assay type: functional
[7] = Antiproliferative activity against human K562/4 cells after 72 hrs by MTT assay; assay type: functional, cell-based; conditions: K562/4, 72 h
[8] = test system: HCT-116; assay: Antiproliferative activity against human HCT116 cells after 72 hrs by MTT assay; assay type: functional, cell-based; conditions: HCT-116, 72 h
[9] = biological target: T1, DNA topoisomerase 1 (Homo sapiens) (UniProt P11387); assay: Inhibition of human DNA topoisomerase 1 assessed as decrease in relaxation of pBR322 at 20 uM after 30 to 40 mins by agarose gel electrophoresis
T1 sequence (whole entry): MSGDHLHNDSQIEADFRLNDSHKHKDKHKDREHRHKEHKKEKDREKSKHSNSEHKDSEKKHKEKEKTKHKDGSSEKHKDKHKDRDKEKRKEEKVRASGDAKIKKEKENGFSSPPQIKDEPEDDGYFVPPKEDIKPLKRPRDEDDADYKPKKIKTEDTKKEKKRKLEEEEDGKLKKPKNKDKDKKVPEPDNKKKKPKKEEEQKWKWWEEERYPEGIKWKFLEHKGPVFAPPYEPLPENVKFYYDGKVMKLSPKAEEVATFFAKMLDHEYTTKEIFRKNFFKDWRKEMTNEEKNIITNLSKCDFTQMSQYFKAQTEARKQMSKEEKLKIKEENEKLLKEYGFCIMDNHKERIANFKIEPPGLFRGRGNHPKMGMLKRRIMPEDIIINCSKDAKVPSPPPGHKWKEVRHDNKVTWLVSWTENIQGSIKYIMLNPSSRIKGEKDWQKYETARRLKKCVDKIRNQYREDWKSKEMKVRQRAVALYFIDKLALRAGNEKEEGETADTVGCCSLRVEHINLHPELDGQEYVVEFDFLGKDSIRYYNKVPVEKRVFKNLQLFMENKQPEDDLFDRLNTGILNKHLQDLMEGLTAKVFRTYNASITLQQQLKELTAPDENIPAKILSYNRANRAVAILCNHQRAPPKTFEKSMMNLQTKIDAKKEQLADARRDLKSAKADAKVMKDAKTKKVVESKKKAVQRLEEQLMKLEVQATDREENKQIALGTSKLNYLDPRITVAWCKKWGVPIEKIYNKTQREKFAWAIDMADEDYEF

[10] = test system: T-24; assay: Induction of apoptosis n human T24 cells assessed as downregulation of Bcl-2 levels at 0.5 to 1 uM after 18 hrs by Western blot method; assay type: functional, cell-based
[11] = test system: T-24; assay: Induction of apoptosis n human T24 cells at 1 uM after 24 hrs by annexin V-FITC/propidium iodide staining-based flow cytometric method; assay type: functional, cell-based
[12] = test system: Calf thymus DNA; assay: Binding affinity to calf thymus DNA; assay type: nucleic-acid assay; conditions: Bos taurus
[13] = test system: Calf thymus DNA; assay: Binding affinity to calf thymus double stranded DNA at 10 uM by fluorescence spectrophotometer; assay type: nucleic-acid assay; conditions: Bos taurus
[14] = test system: T-24; assay: Upregulation of total p53 levels in human T24 cells at 0.5 to 1 uM after 18 hrs by Western blot method; assay type: cell-based; conditions: t-24, 18 h
[15] = test system: T-24; assay: Induction of reactive oxygen species generation in human T24 cells at 1 uM after 30 mins by H2DCFDA dye-based flow cytometric method; assay type: functional, cell-based
[16] = test system: T-24; assay: Growth inhibition of human T24 cells after 72 hrs by cell impedance method; assay type: functional, cell-based; conditions: T-24, 72 h
[17] = test system: T-24; assay: Induction of apoptosis n human T24 cells assessed as PARP cleavage at 0.5 to 1 uM after 18 hrs by Western blot method; assay type: functional, cell-based
[18] = test system: HMEC-1; assay: Antiproliferative activity against HMEC1 cells after 72 hrs by MTT assay; assay type: cell-based; conditions: Homo sapiens, HMEC-1, 72 h
[19] = test system: T-24; assay: Induction of apoptosis n human T24 cells assessed as upregulation of Bak levels at 0.5 to 1 uM after 18 hrs by Western blot method; assay type: functional, cell-based

SMILES	IC50 [1]	IC50 [2]	IC50 [3]	IC50 [4]	IC50 [5]	Ratio IC50 [6]	IC50 [7]	IC50 [8]	inhibition [9]	Activity [10]	Activity [11]	Kb [12]	Activity [13]	Activity [14]	Activity [15]	IC50 [16]	Activity [17]	IC50 [18]	Activity [19]
Cc1cc(O)c2c3c4c(cc(O)c13)C(C)(C)C(=O)c1c(O)c(CNCCO)c(O)c(c1-4)C2=O	1300 nM	3600 nM	1000 nM	3800 nM	3300 nM	20	19400 nM	500 nM											
Cc1cc(O)c2c3c4c(cc(O)c13)C(C)(C)C(=O)c1c(O)cc(O)c(c1-4)C2=O [HELIOMYCIN]	300 nM	100 nM	100 nM	700 nM	500 nM		400 nM	300 nM	inactive	inactive	inactive	1.1 ×10⁴ /M	inactive	Toxic	inactive	26000 nM	inactive	500 nM	inactive
